{"source": "patent US11214594B2", "about": "“Antimicrobial peptide having synergistic antibacterial effect with antibiotics on multidrug resistant bacteria, and use thereof” (priority 2016, dated 2022)", "key": {"[1]": {"test_system": "P. aeruginosa", "assay": "microbe, parasite or virus in culture", "type": "cell-based, Pseudomonas aeruginosa", "in_short": "(§1)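 Broth microdilution in MH medium: strains diluted to 2×10^6 CFU were mixed with equal volumes of twofold serial peptide dilutions in MH medium. MIC was taken as the lowest peptide concentration preventing bacterial growth.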"}, "[2]": {"test_system": "A. baumannii", "assay": "microbe, parasite or virus in culture", "type": "cell-based, Acinetobacter baumannii", "in_short": "as §1"}, "[3]": {"test_system": "MDRAB 12035", "assay": "microbe, parasite or virus in culture", "type": "cell-based, Acinetobacter baumannii", "in_short": "as §1"}, "[4]": {"test_system": "MDRST 8007", "assay": "Minimal inhibitory concentration (MIC), single agent", "type": "cell-based, Salmonella typhimurium", "conditions": "agent alone", "in_short": "as §1"}, "[5]": {"test_system": "S. epidermidis", "assay": "microbe, parasite or virus in culture", "type": "cell-based, Staphylococcus epidermidis", "in_short": "as §1"}, "[6]": {"test_system": "E. coli", "assay": "MIC of antibiotic during combined treatment with antimicrobial peptide", "type": "cell-based, Escherichia coli", "conditions": "for Antibiotic MIC, Erythromycin / Antibiotic MIC, Linezolid / Antibiotic MIC, Vancomycin: E. coli", "in_short": "(§2)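 Using MH broth, we determined combination MICs by titrating the antibiotic into wells and then repeating under the reverse dilution scheme.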"}, "[7]": {"test_system": "A. baumannii", "assay": "MIC of antibiotic during combined treatment with antimicrobial peptide", "type": "cell-based, Acinetobacter baumannii", "conditions": "for Antibiotic MIC, Erythromycin / Antibiotic MIC, Linezolid / Antibiotic MIC, Vancomycin: A. baumannii", "in_short": "as §2"}, "[8]": {"test_system": "MDRAB 12035", "assay": "MIC of antibiotic during combined treatment with antimicrobial peptide", "type": "cell-based, Acinetobacter baumannii", "conditions": "peptide treatment concentration 1 μg/ml", "in_short": "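Broth microdilution in MH medium; strains were diluted to 2×10^6 CFU per ml before plating. Peptide was serially diluted stepwise at 2:1 starting from its MIC, and MH-diluted antibiotic was then added to determine MIC. The reversed arrangement was also tested.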"}, "[9]": {"conditions": "combined with peptide at 1 μg/ml"}, "[10]": {"conditions": "combined with peptide at 2 μg/ml"}, "[11]": {"conditions": "combined with peptide at 4 μg/ml"}, "[12]": {"conditions": "combined with peptide at 6 μg/ml"}, "[13]": {"conditions": "combined with peptide at 8 μg/ml"}, "[14]": {"conditions": "combined with peptide at 16 μg/ml"}, "[15]": {"conditions": "combined with peptide at 32 μg/ml"}, "[16]": {"conditions": "combined with peptide at 64 μg/ml"}}, "note": "Where a SMILES comes first, the peptide text is derived from it. [ ]: non-standard residue; d: D form.", "data": [{"compound": "CC[C@H](C)[C@H](NC(=O)[C@H](CCCCN)NC(=O)[C@H](Cc1c[nH]c2ccccc12)NC(=O)[C@@H](N)CCCNC(=N)N)C(=O)N[C@@H](Cc1ccccc1)C(=O)N[C@@H](CCCCN)C(=O)N[C@@H](CCCCN)C(=O)N[C@H](C(=O)N[C@H](CCCCN)C(=O)N[C@@H](CCCCN)C(=O)N[C@@H](CC(C)C)C(=O)N[C@@H](CC(C)C)C(=O)N[C@@H](Cc1c[nH]cn1)C(=O)N[C@@H](CCCCN)C(=O)N[C@@H](Cc1ccccc1)C(=O)N[C@@H](CCCCN)C(=O)N[C@@H](CCCCN)C(=O)N[C@@H](Cc1ccccc1)C(N)=O)[C@@H](C)CC", "note": "[PapMA-17, RWK IFK KIk KLL HKF KKF-NH2] (H-RWKIFKKI[dK]KLLHKFKKF-NH2; N-terminus assumed)", "values": [{"measurement": "Minimal inhibitory concentration MIC", "setting": "[1]", "value": 16, "unit": "µg/mL"}, {"measurement": "Minimal inhibitory concentration MIC", "setting": "[2]", "value": 32, "unit": "µg/mL"}, {"measurement": "Peptide MIC, peptide alone", "setting": "[2]", "value": 32, "unit": "µg/mL"}, {"measurement": "Antibacterial activity relative to PapMA-1", "setting": "[2]; A. baumannii and S. typhimurium", "value": "at least twice as high"}, {"measurement": "Minimal inhibitory concentration MIC", "setting": "[3]", "value": 32, "unit": "µg/mL"}, {"measurement": "Peptide MIC, peptide alone", "setting": "[3]", "value": 32, "unit": "µg/mL"}, {"measurement": "Minimal inhibitory concentration MIC", "setting": "[4]", "value": 64, "unit": "µg/mL"}, {"measurement": "Minimal inhibitory concentration MIC", "setting": "[5]", "value": ">128", "unit": "µg/mL"}, {"measurement": "Synergistic effect of antibacterial activity with existing antibiotics compared with PapMA-1", "setting": "[6]; E. coli and MDREC1229", "value": "higher level than the PapMA-1 peptide"}, {"measurement": "Antibiotic MIC, Erythromycin", "setting": "[6]; erythromycin combined with peptide at 1 μg/ml", "value": 128, "unit": "µg/mL"}, {"measurement": "Antibiotic MIC, Erythromycin", "setting": "[6]; erythromycin combined with peptide at 2 μg/ml", "value": 16, "unit": "µg/mL"}, {"measurement": "Antibiotic MIC, Erythromycin", "setting": "[6]; erythromycin combined with peptide at 4 μg/ml", "value": 8, "unit": "µg/mL"}, {"measurement": "Antibiotic MIC, Erythromycin", "setting": "[6]; erythromycin combined with peptide at 6 μg/ml", "value": 2, "unit": "µg/mL"}, {"measurement": "Antibiotic MIC, Erythromycin", "setting": "[6]; erythromycin combined with peptide at 8 μg/ml", "value": 1, "unit": "µg/mL"}, {"measurement": "Antibiotic MIC, Erythromycin", "setting": "[6]; erythromycin combined with peptide at 16 μg/ml", "value": 0, "unit": "µg/mL"}, {"measurement": "Antibiotic MIC, Erythromycin", "setting": "[6]; erythromycin combined with peptide at 32 μg/ml", "value": 0, "unit": "µg/mL"}, {"measurement": "Antibiotic MIC, Erythromycin", "setting": "[6]; erythromycin combined with peptide at 64 μg/ml", "value": 0, "unit": "µg/mL"}, {"measurement": "Antibiotic MIC, Linezolid", "setting": "[6]; linezolid combined with peptide at 1 μg/ml", "value": ">128", "unit": "µg/mL"}, {"measurement": "Antibiotic MIC, Linezolid", "setting": "[6]; linezolid combined with peptide at 2 μg/ml", "value": ">128", "unit": "µg/mL"}, {"measurement": "Antibiotic MIC, Linezolid", "setting": "[6]; linezolid combined with peptide at 4 μg/ml", "value": 32, "unit": "µg/mL"}, {"measurement": "Antibiotic MIC, Linezolid", "setting": "[6]; linezolid combined with peptide at 6 μg/ml", "value": 16, "unit": "µg/mL"}, {"measurement": "Antibiotic MIC, Linezolid", "setting": "[6]; linezolid combined with peptide at 8 μg/ml", "value": 8, "unit": "µg/mL"}, {"measurement": "Antibiotic MIC, Linezolid", "setting": "[6]; linezolid combined with peptide at 16 μg/ml", "value": 0, "unit": "µg/mL"}, {"measurement": "Antibiotic MIC, Linezolid", "setting": "[6]; linezolid combined with peptide at 32 μg/ml", "value": 0, "unit": "µg/mL"}, {"measurement": "Antibiotic MIC, Linezolid", "setting": "[6]; linezolid combined with peptide at 64 μg/ml", "value": 0, "unit": "µg/mL"}, {"measurement": "Antibiotic MIC, Vancomycin", "setting": "[6]; vancomycin combined with peptide at 1 μg/ml", "value": ">128", "unit": "µg/mL"}, {"measurement": "Antibiotic MIC, Vancomycin", "setting": "[6]; vancomycin combined with peptide at 2 μg/ml", "value": ">128", "unit": "µg/mL"}, {"measurement": "Antibiotic MIC, Vancomycin", "setting": "[6]; vancomycin combined with peptide at 4 μg/ml", "value": 128, "unit": "µg/mL"}, {"measurement": "Antibiotic MIC, Vancomycin", "setting": "[6]; vancomycin combined with peptide at 6 μg/ml", "value": 32, "unit": "µg/mL"}, {"measurement": "Antibiotic MIC, Vancomycin", "setting": "[6]; vancomycin combined with peptide at 8 μg/ml", "value": 16, "unit": "µg/mL"}, {"measurement": "Antibiotic MIC, Vancomycin", "setting": "[6]; vancomycin combined with peptide at 16 μg/ml", "value": 0, "unit": "µg/mL"}, {"measurement": "Antibiotic MIC, Vancomycin", "setting": "[6]; vancomycin combined with peptide at 32 μg/ml", "value": 0, "unit": "µg/mL"}, {"measurement": "Antibiotic MIC, Vancomycin", "setting": "[6]; vancomycin combined with peptide at 64 μg/ml", "value": 0, "unit": "µg/mL"}, {"measurement": "Synergistic effect of antibacterial activity with existing antibiotics compared with PapMA-1", "setting": "[7]; A. baumannii and MDRAB 12035", "value": "level similar to that of PapMA-1 peptide"}, {"measurement": "Antibiotic MIC, Erythromycin", "setting": "[7]; [9]", "value": 32, "unit": "µg/mL"}, {"measurement": "Antibiotic MIC, Linezolid", "setting": "[7]; [9]", "value": ">128", "unit": "µg/mL"}, {"measurement": "Antibiotic MIC, Vancomycin", "setting": "[7]; [9]", "value": ">128", "unit": "µg/mL"}, {"measurement": "Antibiotic MIC, Erythromycin", "setting": "[7]; [10]", "value": 16, "unit": "µg/mL"}, {"measurement": "Antibiotic MIC, Linezolid", "setting": "[7]; [10]", "value": 64, "unit": "µg/mL"}, {"measurement": "Antibiotic MIC, Vancomycin", "setting": "[7]; [10]", "value": ">128", "unit": "µg/mL"}, {"measurement": "Antibiotic MIC, Erythromycin", "setting": "[7]; [11]", "value": 8, "unit": "µg/mL"}, {"measurement": "Antibiotic MIC, Linezolid", "setting": "[7]; [11]", "value": 32, "unit": "µg/mL"}, {"measurement": "Antibiotic MIC, Vancomycin", "setting": "[7]; [11]", "value": 64, "unit": "µg/mL"}, {"measurement": "Antibiotic MIC, Erythromycin", "setting": "[7]; [12]", "value": 2, "unit": "µg/mL"}, {"measurement": "Antibiotic MIC, Linezolid", "setting": "[7]; [12]", "value": 32, "unit": "µg/mL"}, {"measurement": "Antibiotic MIC, Vancomycin", "setting": "[7]; [12]", "value": 32, "unit": "µg/mL"}, {"measurement": "Antibiotic MIC, Erythromycin", "setting": "[7]; [13]", "value": 0.25, "unit": "µg/mL"}, {"measurement": "Antibiotic MIC, Linezolid", "setting": "[7]; [13]", "value": 8, "unit": "µg/mL"}, {"measurement": "Antibiotic MIC, Vancomycin", "setting": "[7]; [13]", "value": 16, "unit": "µg/mL"}, {"measurement": "Antibiotic MIC, Erythromycin", "setting": "[7]; [14]", "value": 0.125, "unit": "µg/mL"}, {"measurement": "Antibiotic MIC, Linezolid", "setting": "[7]; [14]", "value": 2, "unit": "µg/mL"}, {"measurement": "Antibiotic MIC, Vancomycin", "setting": "[7]; [14]", "value": 4, "unit": "µg/mL"}, {"measurement": "Antibiotic MIC, Erythromycin", "setting": "[7]; [15]", "value": 0, "unit": "µg/mL"}, {"measurement": "Antibiotic MIC, Linezolid", "setting": "[7]; [15]", "value": 0, "unit": "µg/mL"}, {"measurement": "Antibiotic MIC, Vancomycin", "setting": "[7]; [15]", "value": 0, "unit": "µg/mL"}, {"measurement": "Antibiotic MIC, Erythromycin", "setting": "[7]; [16]", "value": 0, "unit": "µg/mL"}, {"measurement": "Antibiotic MIC, Linezolid", "setting": "[7]; [16]", "value": 0, "unit": "µg/mL"}, {"measurement": "Antibiotic MIC, Vancomycin", "setting": "[7]; [16]", "value": 0, "unit": "µg/mL"}, {"measurement": "Erythromycin MIC during combined treatment with peptide", "setting": "[8]", "value": 32, "unit": "µg/mL"}, {"measurement": "Linezolid MIC during combined treatment with peptide", "setting": "[8]", "value": ">128", "unit": "µg/mL"}]}]}
